From patent publication US10392398B2, “Inhibitors of Late SV40 Factor (LSF) as cancer chemotherapeutics” (TRUSTEES OF BOSTON UNIVERSITY, priority 2010, dated 2019) come the findings set out here.

Common to all, as to format: cell-based
For test [1], the system named is NIH/3T3 cells. Put plainly: Cell proliferation assay (MTS), NIH/3T3. Conditions: for IC50 / GI50: Mus musculus, NIH3T3; for IC50: Example 7, FIG. 8, read-out: growth inhibition of NIH/3T3 Cell Line IC50; for antiproliferative activity relative to comparator: against each cell line (NIH/3T3, HeLa, A549), in words. On the procedure: (§1) Cells were plated at 3×10^4 cells/mL, A549 and HeLa, and 1×10^4 cells/mL, NIH/3T3, in 96-well plates and incubated for 24 h to allow for cell adhesion. LSF-library compounds were dissolved in DMSO, serial diluted in appropriate medium and added to cells in triplicate (2 plates). DMSO was added to control wells at a final concentration of 1%. After 72 h incubation in the presence of compound, confluent cells were assayed for growth proliferation with CellTiter 96® AQueous One Solution Cell Proliferation Assay (MTS) (Promega) according to the manufacturer's protocol. Plates were read at 490 nm on a microplate reader, and IC50 values were determined as the percentage of compound-treated cell growth to control cell growth. HCC cells—one hour after plating HCC cells onto 96-well plates, compound or vehicle (DMSO) was added to the desired concentrations, keeping DMSO at 0.5%. At indicated time points, cell viability was assayed using the CellTiter 96® Non-Radioactive Cell Proliferation Assay (MTT) (Promega).
(§2) QGY-7703 and A549 cells were cultured at 37° C. in 5% CO2 in DMEM (Dulbecco's modification of Eagle's Medium; Corning) supplemented with 10% Fetal Bovine Serum (FBS; Invitrogen). NIH-3T3 cells were cultured at 37° C. in 5% CO2 in DMEM supplemented with 10% Fetal Calf Serum (FCS; Atlanta Biologicals). For cell viability assays, 1,500 cells were seeded in 96-well plates and treated with FQI-34 or vehicle (DMSO) at appropriate concentrations (DMSO at 1%) after 20 hours. After 72-hour incubation with compound or vehicle, cell growth was assessed via the Promega CellTiter 96® AQueous One Solution Cell Proliferation Assay, a colorimetric method to determine the number of viable cells. 20 μL of the CellTiter 96® AQueous One Solution Reagent was added directly into cultured wells and incubated for one hour, after which the absorbance at 490 nm was read with a 96-well plate reader (Opys MR Microplate Reader). The CellTiter 96® AQueous One Solution contains an MTS tetrazolium compound which is bioreduced by cells into a colored formazan product that is soluble in tissue culture medium. The quantity of formazan product as measured by absorbance is directly proportional to the number of living cells in culture. GI50 values were determined from plots of the percentage of compound-treated cell growth to vehicle cell growth vs. compound concentration (GraphPad Prism; non-linear regression 4-parameter curve fit with variable slope).

For test [2], the system named is HeLa cells. Description: Cell proliferation assay (MTS), HeLa. Conditions: Homo sapiens; for IC50: HeLa, Example 7, FIG. 8, read-out: growth inhibition of HeLa Cell Line IC50; for GI50: 72 h, MTS. On the procedure: as §1
Test [3] has as its system A549 cells. Put plainly: Cell proliferation assay (MTS), A549. The following applies: Homo sapiens; for IC50: Example 7, FIG. 8, read-out: growth inhibition of A549 Cell Line IC50; for GI50: 72 h, MTS, read-out: GI50 (μM) A549. On the procedure:
as §1, §2

Test [4] has as its target T1, LSF (Homo sapiens, UniProt Q12800).
T1 sequence (Q12800 1-502): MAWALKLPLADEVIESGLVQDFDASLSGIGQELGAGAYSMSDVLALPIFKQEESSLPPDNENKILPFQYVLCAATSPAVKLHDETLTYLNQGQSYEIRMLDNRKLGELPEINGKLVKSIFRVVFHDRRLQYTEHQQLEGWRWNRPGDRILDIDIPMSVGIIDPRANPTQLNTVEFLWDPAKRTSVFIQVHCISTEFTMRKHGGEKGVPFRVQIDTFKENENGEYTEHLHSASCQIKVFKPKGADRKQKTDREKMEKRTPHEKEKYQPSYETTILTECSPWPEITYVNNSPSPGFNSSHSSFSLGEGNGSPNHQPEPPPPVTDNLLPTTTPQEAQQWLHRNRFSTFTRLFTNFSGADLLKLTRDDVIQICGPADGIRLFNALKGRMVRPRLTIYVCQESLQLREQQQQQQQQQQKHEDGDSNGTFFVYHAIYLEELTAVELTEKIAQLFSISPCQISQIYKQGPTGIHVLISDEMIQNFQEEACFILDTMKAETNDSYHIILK
Put plainly: LSF-dependent luciferase reporter assay in NIH 3T3 cells. Set-up: expressed in transfected cells; host or cells: NIH 3T3. The following applies: for IC50: NIH 3T3 cells, dual luciferase, ranges where few concentrations tested, read-out: IC50 (μM) LSF-dependent reporter assat NIH 3T3; for activity in the LSF luciferase reporter assay relative to comparator: in words. On the procedure:
NIH 3T3 cells were transfected with the expression construct pEF1α-LSF, a LSF expression vector^6,20; the reporter construct pGL3B-WT4E1b, a firefly luciferase reporter vector driven by LSF^12; phRL-TK, a control renilla luciferase reporter vector; and pEFGP, essentially as previously described^12. Five hours after transfection, either vehicle (DMSO) or FQI compound was added, keeping DMSO at 0.5%. Cell extracts were harvested 36 hours post-transfection and firefly and renilla luciferase activities measured via a dual luciferase assay (Promega). Five μl of extract was mixed with 30 μl of luciferase assay reagent (Promega), and luminescence measured for 10 seconds using a 20/20n luminometer (Turner Biosystems). Subsequently, 30 μl of Stop & Glo reagent (Promega) was added, and luminescence also measured for 10 seconds. LSF transactivation activity is given as relative luciferase activity, the ratio of firefly to renilla activities.
NIH-3T3 cells were cultured at 37° C. in 5% CO2 in DMEM (Dulbecco's modification of Eagle's Medium; Corning) supplemented with 10% FCS (FCS; Atlanta Biologicals). Approximately 24 hours prior to transfection, 200,000 cells were plated in 35 mm dishes. After 24 hours, cells were ˜70% confluent, and were transfected for 5 hours with pEF1α-LSF, the reporter construct pGL3B-WT4E1b, phRLTK, and pEFGP (Grant, T. J. et al. Antiproliferative small-molecule inhibitors of transcription factor LSF reveal oncogene addiction to LSF in hepatocellular carcinoma. PNAS (2012), 109, 1-6). Vehicle (DMSO) or FQI-34 was then added, keeping the DMSO at 0.5%. Cell extracts were harvested 36 h post-transfection, and firefly and renilla luciferase activities were measured via a dual luciferase assay (Promega Dual-Luciferase Reporter Assay System). Relative luciferase activity represents firefly luciferase activity normalized to that of renilla luciferase in each extract. IC50 values were determined from plots of normalized luciferase activity vs. compound concentration (Prism GraphPad; non-linear regression 4-parameter curve fit with variable slope).

Test [5] deals with QGY-7703 HCC cells. Description: HCC cell viability (MTT), QGY-7703. The following applies: in words. On the procedure: as §1
In test [6] the test system is cancer cell lines. Description: Inhibition of growth of cancer cell lines in vitro (FIGS. 9 and 10). The following applies: 0.2-33 μM. On the procedure: FIG. 9A-9K show the results of inhibition of growth of cancer cell lines in vitro by FQI1 (Formula (IV)). The effect of inhibition of cell growth (represented as a fraction of 1) of increasing concentrations of FQI1 between 0.2-33 μM is shown.
The effect of inhibition of cell growth (represented as a fraction of 1) of increasing concentrations of FQI2 between 0.2-33 μM is shown.

Test [7] concerns QGY-7703 cells. Put plainly: Cell viability GI50 (MTS), QGY-7703. Conditions: Homo sapiens. On the procedure:
as §2

The mark [8] stands for this setting: 72 h, MTS, read-out: GI50 (μM) NIH/3T3.
Where [9] appears, read: Table 3, read-out: GI50 (μM) NIH 3T3.

Where two headings read alike, the source gives them in different places.

`CCOc1ccccc1C1CC(=O)Nc2cc(OC)c(OC)c(OC)c21` (stereo not drawn) [FQI11, 4-(2-ethoxyphenyl)-5,6,7-trimethoxy-3,4-dihydroquinolin-2(1H)-one]: the IC50 in test [1], in test [2] and in test [3] was more than 200 µM in each case.
With `CCOc1ccccc1[C@H]1CC(=O)Nc2cc3c(cc21)OCO3` [(S)-FQI1], the GI50 in test [1] (setting [8]) was found to be 1.1 ± 0.41 µM; in test [1] (setting [9]), 1.1 ± 0.4 µM; in test [2], 0.3 ± 0.03 µM; in test [3], 3 ± 1.3 µM. Further, the IC50 in test [1] was found to be 1.1 ± 0.45 µM; in test [2], 0.3 ± 0.025 µM; in test [3] it was 3 ± 1.3 µM; in test [4] it was 0.8 µM. Moreover, the “antiproliferative activity relative to comparator” value in test [1] is reported as “at least twice as active”. The “fold more active than the racemate in the luciferase reporter assay” value in test [4] (versus racemic FQI1) was “approximately 3 fold”.
Regarding `COc1ccccc1C1CC(=O)Nc2cc3c(cc21)OC(F)(F)O3` (stereo not drawn) [FQI13, 2,2-difluoro-8-(2-methoxyphenyl)-7,8-dihydro-[1,3]dioxolo[4,5-g]quinolin-6(5H)-one], the IC50 in test [1] was 72 ± 9.8 µM; in test [2] it was 8.8 ± 1.4 µM; in test [3] it was more than 300 µM.
Take `CCCOc1ccccc1C1CC(=O)Nc2cc3c(cc21)OCO3` (stereo not drawn) [FQI16, 8-(2-propoxyphenyl)-7,8-dihydro-[1,3]dioxolo[4,5-g]quinolin-6(5H)-one]: in test [1] (setting [9]), the GI50 worked out at 2.3 ± 0.5 µM. Moreover, in test [4], the IC50 was in the range of 2 to 4 µM.
For the compound `CCOc1ccccc1-c1cc(=O)[nH]c2cc3c(cc12)OCO3` [FQI2, 8-(2-ethoxyphenyl)-[1,3]dioxolo[4,5-g]quinolin-6(5H)-one], the GI50 came to 0.71 ± 0.13 µM in test [1] (setting [8]), 0.71 ± 0.13 µM in test [1] (setting [9]), 0.4 ± 0.04 µM in test [2] and 1.9 ± 0.9 µM in test [3]. The “antiproliferative activity relative to comparator” value in test [1] is given as “as active as (S)-FQI1”. Besides, the “cellular proliferation of QGY-7703 cells (MTT)” value in test [5] is on record as “decreased overall cellular proliferation”. The “growth of a variety of cancers, in vitro cell assay” value in test [6] was “inhibit the growth of a variety of cancers”. For the same compound, the IC50 in test [4] amounted to 0.8 µM. Also, the “activity in the LSF luciferase reporter assay relative to comparator” value in test [4] is on record as “as effective as the (S)-enantiomer”.
On to `COc1ccc2c(c1)C(c1ccccc1OC)CC(=O)N2` (stereo not drawn) [FQI14, 6-methoxy-4-(2-methoxyphenyl)-3,4-dihydroquinolin-2(1H)-one], for which, in test [3], the IC50 is more than 10000 µM.
In the case of `CCOCCOCCOCCCc1ccc(C2CC(=O)Nc3cc4c(cc32)OCO4)c(OCC)c1` (stereo not drawn) [PEG-FQI], the GI50 in test [7] (Table 5, read-out: QGY-7703 GI50) was more than 10 µM; in test [7] (Table 8, read-out: QGY-7703 GI50), more than 10 µM.
As to `COc1ccc(C2CC(=O)Nc3cc4c(cc32)OCO4)cc1` (stereo not drawn) [FQI19, 8-(4-methoxyphenyl)-7,8-dihydro-[1,3]dioxolo[4,5-g]quinolin-6(5H)-one], the IC50 in test [1], in test [2] and in test [3] was more than 200 µM each time.
In the case of `COc1ccccc1C1CC(=O)Nc2cc3c(cc21)OCO3` (stereo not drawn) [FQI12, 8-(2-methoxyphenyl)-7,8-dihydro-[1,3]dioxolo[4,5-g]quinolin-6(5H)-one], the GI50 in test [1] (setting [9]) is 4 ± 0.8 µM. For the same compound, in test [4], the IC50 was 3 to 4 µM.
Consider `CCOc1ccccc1[C@@H]1CC(=O)Nc2cc3c(cc21)OCO3` [(R)-FQI1], for which the figures for the GI50 in test [1] (setting [8]), in test [2] and in test [3] were 45 ± 7 µM, 8 ± 1 µM and 18 ± 3.2 µM, respectively. Besides, the IC50 in test [1] came to 45 ± 6.9 µM; in test [2], 8 ± 1 µM; in test [3], 18 ± 3.2 µM. Further, the “times less active than FQI1 in cell proliferation assays” value in test [1] (NIH/3T3, HeLa and A549) is recorded as approximately 10 times. In test [4], the “activity in the LSF luciferase reporter assay relative to comparator” value was “much less active than the racemate”.
In the case of `CCCCOc1ccccc1C1CC(=O)Nc2cc3c(cc21)OCO3` (stereo not drawn) [FQI3, 8-(2-Butoxyphenyl)-7,8-dihydro-[1,3]dioxolo[4,5-g]quinolin-6(5H)-one], in test [1] (setting [9]), the GI50 is 2.6 ± 0.5 µM. In addition, the IC50 in test [4] was 3 to 5 µM.
Regarding `COc1ccc(C2CC(=O)Nc3ccc(OC)cc32)cc1` (stereo not drawn) [FQI21, 6-methoxy-4-(4-methoxyphenyl)-3,4-dihydroquinolin-2(1H)-one], the IC50 in test [1] is more than 200 µM; in test [2] it was 67 ± 9.9 µM; in test [3], more than 200 µM.
Consider `COc1ccccc1C1CC(=O)Nc2cc(OC)c(OC)c(OC)c21` (stereo not drawn) [FQI15, 5,6,7-trimethoxy-4-(2-methoxyphenyl)-3,4-dihydroquinolin-2(1H)-one], for which the IC50 in test [1], in test [2] and in test [3] was more than 200 µM in each case.
Regarding `CCOc1ccccc1C1CC(=O)Nc2cc3c(cc21)OC(F)(F)O3` (stereo not drawn) [FQI9, 8-(2-ethoxyphenyl)-2,2-difluoro-7,8-dihydro-[1,3]dioxolo[4,5-g]quinolin-6(5H)-one], the IC50 was 30 ± 3.5 µM in test [1], 6.6 ± 1.2 µM in test [2] and more than 300 µM in test [3].
